Experimental data reported in PMC4290489, “Identification of multiple salicylic acid-binding proteins using two high throughput screens” (Frontiers in Plant Science, 2015).

Key:
Format in all cases: binding
GSR2 = target: T1, GSR2 (Arabidopsis thaliana, UniProt Q8LCE1); test: SPR competition on 3AESA chip; competition of 4AzSA photo-crosslinking; conditions: 1-5 mM SA, HBS-EP pH 7.4 (SPR); competes with 3AESA and 4AzSA
T1 construct: gene GLN1-2; N-terminal His6 (pET28a), from E. coli
T1 sequence (Q8LCE1 1-356): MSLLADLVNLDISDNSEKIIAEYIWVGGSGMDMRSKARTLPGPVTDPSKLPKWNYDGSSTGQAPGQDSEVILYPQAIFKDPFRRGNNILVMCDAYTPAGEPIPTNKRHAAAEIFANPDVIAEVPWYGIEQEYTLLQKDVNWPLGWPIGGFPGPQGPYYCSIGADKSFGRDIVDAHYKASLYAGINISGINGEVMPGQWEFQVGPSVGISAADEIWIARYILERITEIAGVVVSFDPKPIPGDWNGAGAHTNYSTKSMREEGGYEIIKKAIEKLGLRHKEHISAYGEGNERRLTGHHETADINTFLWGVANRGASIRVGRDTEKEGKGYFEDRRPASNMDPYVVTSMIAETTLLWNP

GPX2 [1] = target: T2, GPX2 (Arabidopsis thaliana, UniProt O04922); test: as above; conditions: 1-5 mM SA, HBS-EP pH 7.4 (SPR); competes with 3AESA and 4AzSA
T2 construct: N-terminal His6 (pET28a), from E. coli
T2 sequence (O04922 1-169): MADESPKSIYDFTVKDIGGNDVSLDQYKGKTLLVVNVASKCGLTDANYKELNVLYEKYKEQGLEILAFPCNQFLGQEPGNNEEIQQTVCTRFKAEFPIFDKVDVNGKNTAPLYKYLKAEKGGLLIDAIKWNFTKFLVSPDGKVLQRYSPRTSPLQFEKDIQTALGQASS

SHM4 = target: T3, SHM4 (Arabidopsis thaliana, UniProt O23254); test: UV photo-crosslinking, anti-SA immunoblot; conditions: 50 uM 4AzSA, PBS, on ice, 254 nm UV; covalent; competed by SA
T3 construct: N-terminal His6 (pET28a), from E. coli
T3 sequence (O23254 1-471): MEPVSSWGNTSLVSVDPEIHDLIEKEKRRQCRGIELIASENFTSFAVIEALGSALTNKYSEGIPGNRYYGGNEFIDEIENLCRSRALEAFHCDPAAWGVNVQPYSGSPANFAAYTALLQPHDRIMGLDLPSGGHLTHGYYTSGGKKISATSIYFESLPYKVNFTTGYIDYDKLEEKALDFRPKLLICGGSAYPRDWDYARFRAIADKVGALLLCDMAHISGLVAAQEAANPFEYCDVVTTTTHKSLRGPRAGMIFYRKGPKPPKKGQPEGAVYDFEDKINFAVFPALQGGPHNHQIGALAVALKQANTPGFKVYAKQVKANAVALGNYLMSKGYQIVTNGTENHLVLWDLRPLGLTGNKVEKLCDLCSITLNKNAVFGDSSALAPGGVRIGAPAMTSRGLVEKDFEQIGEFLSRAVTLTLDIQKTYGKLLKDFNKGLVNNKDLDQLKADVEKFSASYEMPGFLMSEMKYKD

UGE2 = target: T4, UGE2 (Arabidopsis thaliana, UniProt Q9T0A7); test: UV photo-crosslinking, anti-SA immunoblot; conditions: 50 uM 4AzSA, PBS, on ice, 254 nm UV; covalent; competed by SA
T4 construct: N-terminal His6 (pET28a), from E. coli
T4 sequence (Q9T0A7 1-350): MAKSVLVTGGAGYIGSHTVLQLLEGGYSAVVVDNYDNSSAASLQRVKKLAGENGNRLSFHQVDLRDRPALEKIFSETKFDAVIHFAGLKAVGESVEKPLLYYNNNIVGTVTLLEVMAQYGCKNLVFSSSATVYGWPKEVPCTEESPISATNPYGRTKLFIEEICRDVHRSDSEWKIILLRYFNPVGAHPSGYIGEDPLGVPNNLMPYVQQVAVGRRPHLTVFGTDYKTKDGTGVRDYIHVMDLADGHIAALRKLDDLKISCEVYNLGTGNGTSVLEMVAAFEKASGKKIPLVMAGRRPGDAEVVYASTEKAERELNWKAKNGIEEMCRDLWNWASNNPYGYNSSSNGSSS

RBCS1A = target: T5, RBCS1A (Arabidopsis thaliana, UniProt P10795); test: UV photo-crosslinking, anti-SA immunoblot; conditions: 50 uM 4AzSA, PBS, on ice, 254 nm UV; covalent; competed by SA
T5 construct: gene RBCS-1A; small subunit alone, N-terminal His6 (pET28a), from E. coli

GPX2 [2] = target: T2, GPX2; test: UV photo-crosslinking, anti-SA immunoblot; conditions: 50 uM 4AzSA, PBS, on ice, 254 nm UV; covalent; competed by SA

Compound | SPR competition on 3AESA chip; competition of 4AzSA photo-crosslinking (GSR2) | SPR competition on 3AESA chip; competition of 4AzSA photo-crosslinking (GPX2 [1]) | UV photo-crosslinking, anti-SA immunoblot (SHM4) | UV photo-crosslinking, anti-SA immunoblot (UGE2) | UV photo-crosslinking, anti-SA immunoblot (RBCS1A) | UV photo-crosslinking, anti-SA immunoblot (GPX2 [2])
O=C(O)c1ccccc1O [SA] | bound 3AESA and crosslinked to 4AzSA in an SA-inhibitable manner, indicating that they are SABPs | bound 3AESA and crosslinked to 4AzSA in an SA-inhibitable manner, indicating that they are SABPs | – | – | – | –
[N-]=[N+]=Nc1ccc(C(=O)O)c(O)c1 [4AzSA] | – | – | These five proteins also bound and crosslinked to 4AzSA | bound 3AESA and crosslinked to 4AzSA in an SA-inhibitable manner, indicating that they are SABPs | bound 3AESA and crosslinked to 4AzSA in an SA-inhibitable manner, indicating that they are SABPs | bound 3AESA and crosslinked to 4AzSA in an SA-inhibitable manner, indicating that they are SABPs
